The subject of series [1] is SH-SY5Y. In words: Antiproliferative activity against human SH-SY5Y cells assessed as reduction in cell viability incubated for 48 hrs by MTT assay. The class given is functional, cell-based.
A further series has as its system HCT-116. Kind of series: Antiproliferative activity against human HCT-116 cells assessed as reduction in cell viability incubated for 48 hrs by MTT assay. It counts as functional, cell-based. To be noted: HCT-116, 48 h. (In general: Formazan colour is commonly taken as a measure of viable cells.)
The next series relates to MCF7. Kind of series: Antiproliferative activity against human MCF7 cells assessed as reduction in cell viability incubated for 48 hrs by MTT assay. The class given is functional, cell-based. To be noted: MCF7, 48 h.
The subject of series [2] is SH-SY5Y. Kind of series: Induction of apoptosis in human SH-SY5Y cells assessed as viable cells at 5 uM incubated for 48 hrs by Annexin V-FITC/PI staining based flow cytometry analysis (reference value: 91.3%). The class given is functional. The note with it: read-out: Activity. Background: In flow cytometry, cells or beads pass a laser one at a time.
The test system of series [3] is SH-SY5Y. In words: Induction of apoptosis in human SH-SY5Y cells assessed as late apoptotic cells at 5 uM incubated for 48 hrs by Annexin V-FITC/PI staining based flow cytometry analysis (reference value: 3.0%). The class given is functional.
The subject of series [4] is SH-SY5Y. Kind of series: Induction of cell cycle arrest in human SH-SY5Y cells assessed as accumulation of cells at G1/G0 phase at 5 uM incubated for 48 hrs by LSRFortessa cell analyzer (reference value: 50.1%). It counts as functional.
For series [5], the system named is SH-SY5Y. Kind of series: Induction of cell cycle arrest in human SH-SY5Y cells assessed as accumulation of cells at S phase at 5 uM incubated for 48 hrs by LSRFortessa cell analyzer (reference value: 16.2%). It counts as functional.
The test system of series [6] is SH-SY5Y. In words: Induction of apoptosis in human SH-SY5Y cells assessed as early apoptotic cells at 5 uM incubated for 48 hrs by Annexin V-FITC/PI staining based flow cytometry analysis (reference value: 2.0%). The class given is functional.
The subject of series [7] is SH-SY5Y. Kind of series: Induction of cell cycle arrest in human SH-SY5Y cells assessed as accumulation of cells at G2/M phase at 5 uM incubated for 48 hrs by LSRFortessa cell analyzer (reference value: 28.4%). It counts as functional.
For series [8], the system named is SH-SY5Y. Kind of series: Induction of apoptosis in human SH-SY5Y cells assessed as necrotic cells at 5 uM incubated for 48 hrs by Annexin V-FITC/PI staining based flow cytometry analysis (reference value: 0.7%). It counts as functional.
In series [9] the target is T1, Tubulin (Homo sapiens) (UniProt P68371+Q9H4B7+P0DPH7+P68366+Q13509+Q71U36+P04350+Q3ZCM7+P07437+P68363+Q9BQE3+Q6PEY2+Q13885+Q9BVA1+Q9BUF5). In words: Inhibition of tubulin polymerization (unknown origin) at 1 uM incubated for 60 mins measured every 1 mins by spectrophotometric analysis. The class given is protein-complex assay.
Series [10] relates to SH-SY5Y. Kind of series: Induction of mitochondrial membrane potential in human SH-SY5Y cells assessed as mitochondria depolarization at 5 uM incubated for 48 hrs by synergy H1 microplate reader analysis. The class given is functional, cell-based.
In series [11] the target is T1, Tubulin (Homo sapiens). In words: Inhibition of tubulin polymerization (unknown origin) at 5 uM incubated for 60 mins measured every 1 mins by spectrophotometric analysis. The class given is protein-complex assay.
Another series relates to HEK-293T. In words: Cytotoxicity against human HEK293T cells at 25 uM incubated for 48 hrs by MTT assay. It counts as toxicity, cell-based.

The values below come from ChEMBL document CHEMBL6177929, “Synthesis and screening of novel 2,4-bis substituted quinazolines as tubulin polymerization promoters and antiproliferative agents” (RSC Med Chem, 2025).

Activity calls are given as the source filed them. The rule behind the calls is not given here. Where only a bound is given, the exact number is not on record here.

As to `c1ccc(N2CCN(c3nc(N4CCN(c5ccccc5)CC4)c4ccccc4n3)CC2)cc1`, the figures for the IC50 in the series with SH-SY5Y [1], in the series on HCT-116 and with MCF7 were above 25 µM, 9.19 µM and 12.8 µM, respectively.

As for `c1ccc2c(N3CCOCC3)nc(N3CCOCC3)nc2c1`, the IC50 in the series with SH-SY5Y [1] is 18.9 µM; with HCT-116, above 25 µM; in the series on MCF7 it was 14.6 µM.

With `COc1cc2c(c(OC)c1OC)-c1ccc(OC)c(=O)cc1[C@@H](NC(C)=O)CC2` [COLCHICINE], the viability at 5 µM in the series with SH-SY5Y [2] was 35.1%. Further, the Activity amounted to 54.5% with SH-SY5Y [3]; 5.1% in the series with SH-SY5Y [4]; 4.1% in the series with SH-SY5Y [5]; 6.5% with SH-SY5Y [6]; 90% with SH-SY5Y [7]; 3.9% in the series with SH-SY5Y [8]. Further, the half-maximal inhibitory concentration (IC50) in the series with SH-SY5Y [1] came to 6.82 µM; in the series on HCT-116 it was 1.65 µM; with MCF7 it was 4.48 µM.

For `c1ccc2c(-n3cnnc3)nc(-n3cnnc3)nc2c1`, the IC50 in the series with SH-SY5Y [1] amounted to 15.3 µM; in the series on HCT-116, 17.5 µM; in the series with MCF7, 19 µM.

`CN1CCN(c2nc(N3CCN(C)CC3)c3ccccc3n2)CC1`: the results for the IC50 with SH-SY5Y [1], in the series on HCT-116 and in the series on MCF7 were 23.8 µM, 20.7 µM and above 25 µM, respectively.

Take `c1ccc2c(-n3ccnc3)nc(-n3ccnc3)nc2c1`: the figures for the IC50 in the series on SH-SY5Y [1], in the series with HCT-116 and in the series with MCF7 were 15.7 µM, 9.43 µM and 11.5 µM, respectively.

Turning to `COc1cc2c(-n3cnnc3)nc(-n3cnnc3)nc2c(OC)c1OC`, the IC50 with SH-SY5Y [1] was above 25 µM; with HCT-116, 13.8 µM; in the series with MCF7, 23.1 µM.

As to `c1ccc2c(-n3nnc4ccccc43)nc(-n3nnc4ccccc43)nc2c1`, the IC50 in the series on SH-SY5Y [1] is 11 µM; in the series with HCT-116, above 25 µM; with MCF7 it was 15.3 µM.

As to `COc1cc2c(-n3ccnc3)nc(-n3ccnc3)nc2c(OC)c1OC`, the inhibition entry on Tubulin (Homo sapiens) [9] is “inactive”. The viability at 5 µM in the series on SH-SY5Y [2] stood at 33.3%. Further, the Activity in the series on SH-SY5Y [3] is given as 50.3%; in the series on SH-SY5Y [4], 11.3%; in the series on SH-SY5Y [5] it was 6.8%; in the series on SH-SY5Y [6], 9.6%; in the series on HEK-293T, “Non-toxic”; with SH-SY5Y [7], 79%. The Activity with SH-SY5Y [8] is 6.8%. Besides, the IC50 with SH-SY5Y [1] worked out at 9.91 µM; with HCT-116, 2.65 µM; in the series with MCF7, 4.25 µM. Moreover, the outcome in the series on SH-SY5Y [10] was Active. At Tubulin (Homo sapiens) [11], the inhibition result is “Active”.

As for `COc1cc2c(N3CCOCC3)nc(N3CCOCC3)nc2c(OC)c1OC`, the IC50 is 15.9 µM with SH-SY5Y [1], above 25 µM in the series with HCT-116 and 18.8 µM in the series with MCF7.

Regarding `c1ccc(CN2CCN(c3nc(N4CCN(Cc5ccccc5)CC4)c4ccccc4n3)CC2)cc1`, the IC50 is above 25 µM in the series on SH-SY5Y [1], above 25 µM with HCT-116 and 21.8 µM with MCF7.

For the compound `COc1cc2c(-n3nnc4ccccc43)nc(-n3nnc4ccccc43)nc2c(OC)c1OC`, the viability at 5 µM in the series with SH-SY5Y [2] came out at 35.9%. For the same compound, the Activity in the series with SH-SY5Y [3] is 51.8%; in the series with SH-SY5Y [4], 78.9%; in the series with SH-SY5Y [5], 7.7%; in the series on SH-SY5Y [6] it was 10.3%; in the series with HEK-293T, “Non-toxic”; with SH-SY5Y [7], 8.4%. In the series on SH-SY5Y [8], the Activity turned out to be 2%. In addition, the IC50 in the series with SH-SY5Y [1] was determined as 8.14 µM; with HCT-116 it was 7.25 µM; in the series on MCF7, 3.45 µM. Moreover, the result in the series with SH-SY5Y [10] was inactive.

In the case of `COc1cc2c(N3CCN(C)CC3)nc(N3CCN(C)CC3)nc2c(OC)c1OC`, the IC50 in the series with SH-SY5Y [1] was above 25 µM; in the series with HCT-116, 21.3 µM; in the series with MCF7, 24.1 µM.

As usually defined, the IC50 is the concentration needed to halve the response being measured.
